“And” between values parts separate entries of the source, which are not always exact repeats. Identical values can stand only once. Like-named read-outs stand apart in the source and are kept apart here.
Legend:
[1] = set-up: method as in earlier work; settings: QikProp, ref [25], cited from earlier work; for %HOA predicted human oral absorption: 0 to 100% scale, >80% high; for QPlogS predicted aqueous solubility: log value, recommended -6.5-0.5; for SASA predicted total solvent accessible surface: recommended 300-1000, in Å2 (unit assumed); for QPlogP predicted octanol/water partition coefficient: recommended -2-6.5
[2] = system: hHDAC8; settings: recombinant enzyme, previously reported; ref [25]; cited from earlier work
[3] = system: hHDAC1; settings: recombinant enzyme, previously reported; ref [25]; cited from earlier work
[4] = system: histone proteins of S. mansoni adult worm pairs; experiment: Western blot, histone acetylation (anti-acetylated lysine) in adult worm pairs; type: cell-based, Schistosoma mansoni; settings: 48 h and 72 h, partially lethal and sub-lethal doses
Procedure: Ten adult pairs were treated with selected HDAC inhibitors for 48 h or 72 h at partially lethal and sublethal concentrations. Compound concentrations were selected based on the viability curve, Trichostatin A (TSA), a pan-HDAC inhibitor, and NF2503 a SmHDAC8 inhibitor chemically characterized by the presence of a hydroxamate-based MBG (metal binding group) coupled to a tricyclic thieno[3,2-b]indole core as capping group, previously described were used as positive controls in the experiments; DMSO (vehicle) was the negative control. Parasites were processed as previously described and samples were analyzed by 15% SDS-PAGE, and immunoblotting was performed using α-tubulin DM1A (1:5000), α-acetylated-lysine (1:4000) and α-acetylated tubulin (1:3000) antibodies. A Chemidoc XRS Bio-Rad with a chemiluminescent camera and Bio-Rad ImageLab 4.0 software were used for the acquisition and analysis of images. Each Western blot analysis was calibrated by Ponceau staining.
TSA, a known pan- class I and class II HDAC -inhibitor, and NF2503, a HDAC inhibitor previously shown to impact histone acetylation in adult worm pairs were used as positive controls.
Fig 6 Effects of selected compounds on histones and tubulin acetylation. […]

[5] = MTT cytotoxicity assay on L929 fibroblasts; type: cell-based, murine; settings: mouse, L929 (NCTC clone 929) fibroblast cells, compounds 100-0.78 μM, GA 10-0.078 μM, 2 independent experiments
Procedure: The NCTC clone 929 (L-929) murine fibroblast isolated from subcutaneous connective tissue (ATCC-CCL-1) were cultured in Dulbecco’s Modified Eagle Medium (DMEM) supplemented with 10 mM Hepes (pH 6.98–7.30), 1 mM l-glutamine, 100 U/ml of penicillin/streptomycin (BioWhittaker, Lonza, EuroClone SpA), and heat-inactivated 10% FBS. All cells were cultured at 37°C in a 5% CO2 humidified incubator.
The MTT method was employed as previously described to determine the viability of fibroblast cell lines. Briefly, cells seeded into 96-well plates at a density of 20,000 cells/well after overnight incubation, were exposed to selected compounds at the indicated concentrations for 24–72 h. Next they were gently washed, incubated with MTT (bromuro di 3-(4,5-dimetiltiazol-2-il)-2,5-diphenyltetrazolium) for 4 h, and processed for color detection with DMSO. The resulting purple solution was spectrophotometrically measured at 570 nm using a Varioskan Lux instrument and Skanit software (Thermo Fisher Scientific).
The optical density values for both assays were expressed as a percentage of cell survival and normalized with the value of cells treated with vehicle (DMSO), and the data were analyzed using GraphPad Prism v9.5.1 software (San Diego, CA, USA).
The cytotoxicity of the hit compounds was assessed in two independent experiments on murine L929 and human BJ fibroblasts at 24 h by MTT assays. Vehicle (DMSO) and Gambogic acid (GA) were used as negative and positive control respectively. The compounds show a safe profile on both cell lines (S2 Table).
The IC50(μM) shown was calculated by dose-response curves of the compounds on murine L929 and human BJ fibroblast cells. […] The data are representative of 2 independent experiments. Gambogic acid (GA) and vehicle (DMSO) were used as positive and negative controls respectively. (DOCX)

[6] = system: adult S. mansoni worm pairs; experiment: Viability assay on adult worm pairs (phenotype scoring 0-3); type: cell-based, Schistosoma mansoni; settings: for viability at 20 µM / viability at 50 µM: Schistosoma mansoni
Procedure: For studies on adult worm pairs, mice infected 7–8 weeks previously with double sex cercariae were euthanized with intraperitoneal injections of Tiletamine/Zolazepam ([…]) + Xylazine (100 mg/kg) and adult parasites were harvested by reversed perfusion of the hepatic portal system and mesenteric veins. Adult worms were cultured in DMEM containing phenol red and with 4500 mg/l glucose, 2 mM L-glutamine, 100 U/ml penicillin, 100 μg/ml streptomycin, 1x antibiotic-antimycotic reagent, and 10% heat inactivated FBS. Viability assays on adult worm pairs were based on a phenotyping scoring assessment as previously described. Briefly, five adult pairs were incubated with selected compounds in 3 ml of DMEM complete medium. For each compound, three experiments were performed, and compounds were given to parasites only once without medium addition and/or replacement. DMSO (vehicle)-treated worms were used as control samples. Viability was monitored under a Leica Model MZ12 stereomicroscope for 7 days and viability scores (0–3) were assigned. […] For each sample, the total score was determined by the ratio of the sum of worm scores for the total number of worms.
Fig 3 Schistosome viability assays. Panel A: Representative dose-response curves of the inhibitors on NTS. The y-axis indicates the percentage of viability normalized against DMSO (100%) and gambogic acid 10 μM (0%). […] Panel B: dose-response curve of the inhibitors on adult schistosome worm pairs. DMSO (vehicle) was used as negative control (100% viability), the indicated compounds were assayed at 5 (full triangle) 10 (inverted full triangle), 20 (full square) and 50 μM (full circle). Data are expressed as a % severity score (viability) relative to DMSO. Each point represents the average ± standard deviation of three independent experiments.
Parasites were treated initially at 20 μM and 50 μM; their impact on viability was monitored for 7 days upon treatment. […] Viability of each schistosome was scored from 3 (no effect) to 0 (severe effects) by assigning daily worm phenotype scores (plate attachment, movement, color, gut peristalsis, tegument damage) as previously described (Fig 3B).

[7] = system: HERG K+ channels; set-up: method as in earlier work; settings: QikProp, log value; recommended below -5; ref [25]; cited from earlier work
[8] = 24 h, 20 µM, day 1, read-out: % viability of adult worm pairs relative to DMSO, Mean
[9] = 24 h, 20 µM, day 1, read-out: % viability of adult worm pairs relative to DMSO, single experiments
[10] = 24 h, 50 µM, day 1, read-out: % viability of adult worm pairs relative to DMSO, Mean
[11] = 72 h, 20 µM, day 3, read-out: % viability of adult worm pairs relative to DMSO, Mean
[12] = 72 h, 20 µM, day 3, read-out: % viability of adult worm pairs relative to DMSO, single experiments
[13] = 72 h, 50 µM, day 3, read-out: % viability of adult worm pairs relative to DMSO, Mean
[14] = 120 h, 20 µM, day 5, read-out: % viability of adult worm pairs relative to DMSO, Mean
[15] = 120 h, 20 µM, day 5, read-out: % viability of adult worm pairs relative to DMSO, single experiments
[16] = 120 h, 50 µM, day 5, read-out: % viability of adult worm pairs relative to DMSO, Mean
[17] = 168 h, 20 µM, day 7, read-out: % viability of adult worm pairs relative to DMSO, Mean
[18] = 168 h, 20 µM, day 7, read-out: % viability of adult worm pairs relative to DMSO, single experiments
[19] = 168 h, 50 µM, day 7, read-out: % viability of adult worm pairs relative to DMSO, Mean

In the case of `Cn1c(=O)c(OCc2ccc(C(=O)NO)cc2)c(C2CCCCC2)c2ccccc21` [NF2836], the “%HOA predicted human oral absorption” value [1] is given as 87.94%, the “QPlogS predicted aqueous solubility” value [1] is given as -5.04 mol/dm^3 and the “SASA predicted total solvent accessible surface” value [1] is given as 684.14. The “QPlogP predicted octanol/water partition coefficient” value [1] was 3.01, the IC50 [2] was 1600 ± 300 nM and the IC50 [3] was 3000 ± 200 nM. The “histone acetylation vs vehicle (DMSO)” value [4] was “only slightly impacts histone acetylation”, the IC50 at 24 h [5] was greater than 100 µM and the “% viability of adult worm pairs relative to DMSO, single experiments” value ([6]; 20 µM, day 1, 20 µM) was 100%. The “% viability of adult worm pairs relative to DMSO, single experiments” value ([6]; 20 µM, day 3, 20 µM) was 100% and 96%, the “% viability of adult worm pairs relative to DMSO, single experiments” value ([6]; 20 µM, day 5, 20 µM) was 100% and 96% and the “% viability of adult worm pairs relative to DMSO, single experiments” value ([6]; 20 µM, day 7, 20 µM) was 100%. The “% viability of adult worm pairs relative to DMSO, single experiments” value ([6]; 50 µM, day 3, 50 µM) was 80% and 60% and 92.59% and 77%, the “% viability of adult worm pairs relative to DMSO, single experiments” value ([6]; 50 µM, day 5, 50 µM) was 63% and 43% and 42.59% and 67% and the viability at 20 µM [6, 8] was 94.3%. For the same compound, the viability at 20 µM [6, 9] was 83%, the viability at 50 µM [6, 10] was 62.1% and the viability at 20 µM [6, 11] was 98.7%. For the same compound, the viability at 20 µM [6, 12] was 100%, the viability at 50 µM [6, 13] was 77.4% and the viability at 20 µM [6, 14] was 98.7%. The viability at 20 µM [6, 15] was 100%, the viability at 50 µM [6, 16] was 53.9% and the viability at 20 µM [6, 17] was 94.3%. The viability at 20 µM [6, 18] was 100%, the viability at 50 µM [6, 19] was 53.2% and the “QPlogHERG predicted IC50 values for blockage of HERG K+ channels” value [7] was -5.45.
In the case of `CCN(CC)Cc1ccc(Cn2c(=O)c(OCc3ccc(C(=O)NO)cc3)c(-c3cccnc3)c3ccccc32)cc1` [NF2838], the “%HOA predicted human oral absorption” value [1] is listed as 64.57%, the “QPlogS predicted aqueous solubility” value [1] is listed as -4.58 mol/dm^3 and the “SASA predicted total solvent accessible surface” value [1] is listed as 849.77. The “QPlogP predicted octanol/water partition coefficient” value [1] was 3.29, the IC50 [2] was 500 ± 200 nM and the IC50 [3] was 300 ± 100 nM. For the same compound, the “histone acetylation vs vehicle (DMSO)” value [4] was “more strongly impact histone acetylation”, the IC50 at 24 h [5] was 64 to 100 µM and the “% viability of adult worm pairs relative to DMSO, single experiments” value ([6]; 20 µM, day 1, 20 µM) was 93.3% and 96%. For the same compound, the “% viability of adult worm pairs relative to DMSO, single experiments” value ([6]; 20 µM, day 3, 20 µM) was 86.6% and 96%, the “% viability of adult worm pairs relative to DMSO, single experiments” value ([6]; 20 µM, day 5, 20 µM) was 90% and 100% and the “% viability of adult worm pairs relative to DMSO, single experiments” value ([6]; 20 µM, day 7, 20 µM) was 85% and 100%. For the same compound, the “% viability of adult worm pairs relative to DMSO, single experiments” value ([6]; 50 µM, day 1, 50 µM) was 62% and 73%, the “% viability of adult worm pairs relative to DMSO, single experiments” value ([6]; 50 µM, day 3, 50 µM) was 67% and 70% and the “% viability of adult worm pairs relative to DMSO, single experiments” value ([6]; 50 µM, day 7, 50 µM) was 67%. The viability at 20 µM [6, 8] was 96.4%, the viability at 20 µM [6, 9] was 100% and the viability at 50 µM [6, 10] was 67.5%. The viability at 20 µM [6, 11] was 94.2%, the viability at 20 µM [6, 12] was 100% and the viability at 50 µM [6, 13] was 58.5%. For the same compound, the viability at 50 µM ([6]; 72 h, 50 µM, day 3, read-out: % viability of adult worm pairs relative to DMSO, single experiments) was 50%, the viability at 20 µM [6, 14] was 96.7% and the viability at 20 µM [6, 15] was 100%. The viability at 50 µM [6, 16] was 50%, the viability at 20 µM [6, 17] was 95% and the viability at 20 µM [6, 18] was 100%. For the same compound, the viability at 50 µM [6, 19] was 58.5%, the viability at 50 µM ([6]; 168 h, 50 µM, day 7, read-out: % viability of adult worm pairs relative to DMSO, single experiments) was 50% and the “QPlogHERG predicted IC50 values for blockage of HERG K+ channels” value [7] was -7.83.

From article PMC10927086, “Effects of structurally distinct human HDAC6 and HDAC6/HDAC8 inhibitors against S. mansoni larval and adult worm stages” (PLOS Neglected Tropical Diseases, 2024)
